The source of these data is ChEMBL document CHEMBL5344406, “1,2,3-Triazole-containing hybrids with potential antibacterial activity against ESKAPE pathogens” (2022).

Converted amounts (≈) assume the structure as drawn.

Common to all, as to type: functional
Assay [1] deals with Staphylococcus aureus. Kind of assay: Antibacterial activity against methicillin-resistant Staphylococcus aureus assessed as bacterial growth inhibition by agar dilution method.
Assay [2] concerns Escherichia coli. Nature of the assay: Antibacterial activity against Escherichia coli assessed as bacterial growth inhibition incubated for 18 hrs by absorbance based assay.
The next assay deals with Klebsiella pneumoniae. Nature of the assay: Antibacterial activity against multi-drug Klebsiella pneumoniae assessed as bacterial growth inhibition incubated for 18 hrs by absorbance based assay.
Assay [3] has as its system Acinetobacter baumannii. Nature of the assay: Antibacterial activity against Acinetobacter baumannii assessed as bacterial growth inhibition incubated for 18 hrs by absorbance based assay.
Assay [4] relates to Staphylococcus aureus. Nature of the assay: Antibacterial activity against methicillin-resistant Staphylococcus aureus assessed as bacterial growth inhibition incubated for 18 hrs by absorbance based assay.
The subject of assay [5] is Acinetobacter baumannii. Nature of the assay: Antibacterial activity against Ciprofloxacin-resistant Acinetobacter baumannii assessed as bacterial growth inhibition.
In assay [6] the test system is Escherichia coli. Nature of the assay: Antibacterial activity against Ciprofloxacin-resistant Escherichia coli assessed as bacterial growth inhibition.
Assay [7] has as its system Staphylococcus aureus. Nature of the assay: Antibacterial activity against Ciprofloxacin-resistant Staphylococcus aureus assessed as bacterial growth inhibition.
Assay [8] deals with Escherichia coli. Kind of assay: Antibacterial activity against Escherichia coli JM109 assessed as bacterial growth inhibition incubated for 18 to 20 hrs by broth microdilution method. The conditions noted are these: time 18-20 hrs. On the technique in general: In broth dilution the organism is exposed to a series of concentrations in liquid medium.
Assay [9] has as its system Bacillus subtilis. Nature of the assay: Antibacterial activity against Bacillus subtilis assessed as bacterial growth inhibition incubated for 18 to 20 hrs by broth microdilution method. The conditions noted are these: time 18-20 hrs.
In assay [10] the test system is Escherichia coli. Kind of assay: Potency index, ratio of Streptomycin MIC to test compound MIC for antibacterial activity against Escherichia coli JM109 assessed as bacterial growth inhibition incubated for 18 to 20 hrs by broth microdilution method. The conditions noted are these: time 18-20 hrs.
Assay [11] has as its system Bacillus subtilis. Kind of assay: Potency index, ratio of Streptomycin MIC to test compound MIC for antibacterial activity against Bacillus subtilis assessed as bacterial growth inhibition incubated for 18 to 20 hrs by broth microdilution method. The conditions noted are these: time 18-20 hrs.
The subject of assay [12] is Staphylococcus aureus. Kind of assay: Antibacterial activity against methicillin-resistant Staphylococcus aureus assessed as bacterial growth inhibition.
Assay [13] deals with Staphylococcus aureus. Nature of the assay: Antibacterial activity against Staphylococcus aureus MTCC 7443 assessed as bacterial growth inhibition incubated for 24 hrs by serial dilution method.
The test system of assay [14] is Bacillus subtilis. Kind of assay: Antibacterial activity against Bacillus subtilis MTCC 441 assessed as bacterial growth inhibition incubated for 24 hrs by serial dilution method.
Assay [15] concerns Escherichia coli. Nature of the assay: Antibacterial activity against Escherichia coli ATCC 25922 assessed as bacterial growth inhibition incubated for 18 to 24 hrs by turbidimetry. The conditions noted are these: time 18-24 hrs.
The test system of another assay is Pseudomonas aeruginosa. Kind of assay: Antibacterial activity against Pseudomonas aeruginosa ATCC 27853 assessed as bacterial growth inhibition incubated for 18 to 24 hrs by turbidimetry. The conditions noted are these: time 18-24 hrs.
The test system of assay [16] is Bacillus subtilis. Nature of the assay: Antibacterial activity against Bacillus subtilis ATCC 6633 assessed as bacterial growth inhibition incubated for 18 to 24 hrs by turbidimetry. The conditions noted are these: time 18-24 hrs.
Assay [17] deals with Staphylococcus aureus. Nature of the assay: Antibacterial activity against Staphylococcus aureus ATCC 25923 assessed as bacterial growth inhibition incubated for 18 to 24 hrs by turbidimetry. The conditions noted are these: time 18-24 hrs.
For assay [18], the system named is Staphylococcus aureus. Nature of the assay: Antibacterial activity against Staphylococcus aureus assessed as bacterial growth inhibition by broth dilution method.
Assay [19] deals with Staphylococcus epidermidis. Nature of the assay: Antibacterial activity against Staphylococcus epidermidis assessed as bacterial growth inhibition by broth dilution method.
Assay [20] has as its system Staphylococcus epidermidis. Nature of the assay: Potency index, ratio of streptomycin MIC to test compound MIC for antibacterial activity against Staphylococcus epidermidis assessed as bacterial growth inhibition by broth dilution method.
The subject of assay [21] is Staphylococcus aureus. Kind of assay: Potency index, ratio of streptomycin MIC to test compound MIC for antibacterial activity against Staphylococcus aureus assessed as bacterial growth inhibition by broth dilution method.

As usually defined, the MIC is the least concentration at which growth counts as inhibited. As to `COc1cc(/C=C/c2ccc(OCc3cn(-c4ccc(C(=O)O)cc4)nn3)cc2)cc(OC)c1`, the minimal inhibitory concentration (MIC) in the assay on Staphylococcus aureus [1] worked out at 1.2 µg/mL (≈ 2.62 µM).

Turning to `Cc1ccc(S(=O)(=O)OCCn2cc(COc3cccc4cccnc34)nn2)cc1`, the minimal inhibitory concentration (MIC) with Escherichia coli [2], with Klebsiella pneumoniae, in the assay with Acinetobacter baumannii [3] and in the assay on Staphylococcus aureus [4] was 75.4 µg/mL (≈ 178 µM) in each case.

Take `CCOc1c(NC(=O)c2ccc(NC(=O)c3ccc(NC(=O)[C@H](Cc4c[nH]nn4)NC(=O)/C(C)=C/c4ccc(O)cc4)cc3)c(OCC)c2O)ccc(C(=O)O)c1O`: the MIC with Acinetobacter baumannii [5], in the assay with Escherichia coli [6] and in the assay on Staphylococcus aureus [7] was 0.031 µg/mL (≈ 0.0391 µM) each time.

In the case of `Cc1cc2cc(C#CCCCCCCc3cn(C4(C(C)C)Oc5cc6oc(=O)ccc6cc5C4=O)nn3)c(=O)oc2cc1O` (stereo not drawn), the minimal inhibitory concentration (MIC) in the assay with Escherichia coli [8] was 0.15 µg/mL (≈ 0.253 µM); in the assay with Bacillus subtilis [9] it was 0.02 µg/mL (≈ 0.0337 µM). The Ratio in the assay on Escherichia coli [10] is on record as 6.7; in the assay with Bacillus subtilis [11] it was 100.

Take `O=C1C(=O)N(CCn2cc(COc3cccc4cccnc34)nn2)c2c(Br)cc(Br)cc21`: the MIC in the assay with Staphylococcus aureus [12] came out at 15.2 µg/mL (≈ 27.3 µM).

With `CC(C)(NS(=O)(=O)c1ccc(Br)cc1)c1cn(-c2ccc(Br)cc2)nn1`, the MIC in the assay with Staphylococcus aureus [13] and in the assay on Bacillus subtilis [14] was 12.5 µg/mL (≈ 25 µM) in each case.

On to `Nc1c(C(=O)N2CCN(c3cc4c(cc3F)c(=O)c(C(=O)O)cn4C3CC3)CC2)nnn1-c1ccccc1`, for which the minimal inhibitory concentration (MIC) in the assay on Escherichia coli [15], in the assay with Pseudomonas aeruginosa, in the assay with Bacillus subtilis [16] and in the assay on Staphylococcus aureus [17] was 15.6 µg/mL (≈ 30.1 µM) throughout.

As for `CC1(C)O[C@@H]2[C@@H](CC[C@]3(COC(C)(C)O3)[C@H]2OCc2cn(-c3cccc4ccccc34)nn2)O1`, the figures for the MIC (in the assay with Staphylococcus aureus [18]; in assay [19]) were 2.34 µg/mL (≈ 5.03 µM) and 1.17 µg/mL (≈ 2.51 µM), respectively. The Ratio (in assay [20]; in the assay on Staphylococcus aureus [21]) was 4 in each case.
